Data as given in patent US20110082177A1, “N'-NITROXYALKYLNICOTINAMIDES FOR THE TREATMENT OF CARDIOVASCULAR DISEASES” (priority 2008, published 2011).

How the values were obtained:
[1] = Binding to heparin, absorption method; settings: compound 100 μM, heparin immobilised on Sepharose 25 mg/ml
Method: The absorption method consisted in comparing the absorption spectrum of an aqueous solution of the tested compound with the absorption spectrum of the same solution after its incubation with Sepharose immobilised heparin as a glycosaminoglycan mimicking the glycosaminoglycan receptor. The absorption spectra were recorded using a Perkin Elmer Lambda 40 spectrophotometer. The following reagents were prepared prior to the experiment: an aqueous solution of the tested compound of Example 1, namely 1-methyl-N′-(2-nitroxyethyl)nicotinamide chloride (MNIC^+Cl^−), at a concentration of 100 μM, an aqueous suspension of heparin immobilised on Sepharose at 25 mg/ml, and a solution of MNIC^+Cl^− in an aqueous suspension of heparin having the same concentrations in both the tested compound and heparin as mentioned above. Following the initial incubation of the solution of the tested compound with heparin, it was centrifuged for 6 minutes at 13,000 rpm. Then supernatant solutions above the precipitate of heparin were separated and the spectra of the solutions were recorded at the wavelength range of 200-600 nm.
The degree of binding of MNIC^+ to heparin was determined by calculating the areas under the absorption curves of the compound before and after contact with heparin, using the following relationship: […]

[2] = Binding to heparin, radiation method (pulse radiolysis); settings: water-soluble heparin 10 μM
Method: The experiment consisted in studying the effect of the presence of heparin on the observed rate of scavenging the hydrated electron by the MNIC^+ cation. The studies were carried out by pulse radiolysis, using an Elektronika ELU-6E linear electron accelerator (at the Institute of Applied Radiation Chemistry, Technical University of Lodz, Poland) having an electron beam energy of 6-8 MeV, as an ionising-radiation source. A solution of water-soluble heparin at a concentration of 10 μM was used in the experiment. […]
Based on the recorded kinetic traces of decay of the hydrated electron in the presence of the MNIC^+Cl^− solutions at various concentrations, the values of the pseudo-first order rate constants were determined. The value of the second-order rate constant for the investigated reaction was determined from the slope of the linear dependence of the above-determined rate constants versus concentration. […] Then, based on the determined second-order reaction rate constant and the observed rate constant for decay of the hydrated electron in the presence of heparin and MNIC^+, the degree of binding of the tested compound to heparin was determined using the following relationship: […]

[3] = Ability to release NO by EPR method; settings: preliminary investigations
Method: Preliminary investigations of the ability of MNIC^+Cl^− to release NO were also performed using EPR (Electron Paramagnetic Resonance) method. The results of these studies confirmed that MNIC^+Cl^− releases NO, and most likely the vasodilating activity of the compound is a consequence of the stimulation of sGC by NO thus released.

[4] = test system: soluble guanyl cyclase (sGC); assay: Effect of sGC inhibitor ODQ on vasodilatating activity in isolated rat aortal rings
Method: (§1) The vasodilating effect of MNIC^+Cl^− in aqueous solutions on isolated rat aorta was studied in the conditions close to physiological ones. 3-5 mm aortal rings with preserved endothelial function placed in a set of 6 containers a 5 ml containing the Krebs-Henseleit buffer constantly aerated with 5% CO2 in O2 and thermostated at 37° C. were suspended between two hooks connected to the force transducer for recording the ring contraction. Then, following the constriction induced by phenylephrine, the concentration-dependent vasodilating effect of MNIC^+Cl^− was investigated by measurement of relaxation of phenylephrine contracted aortal rings.
(§2) The experiments explaining the mechanisms responsible for vasodilation induced by MNIC^+Cl^− were carried out in the same system of isolated vascular vessels. In order to determine the contribution of sGC and KATP channels in the vasodilating activity of the compound, the effects of an inhibitor of ATP-dependent potassium channels—glibenclamide (GLB) at a concentration of 10 μM, and an inhibitor of soluble guanyl cyclase (sGC) 1H-[1,2,4]-oxadiazole[4,3-a]quinoxalin-1-one (ODQ) at a concentration of 10 μM on this vasodilating activity were investigated in two set of experiments. In these experiments, MNIC^+Cl^− was used at the concentrations causing about 80-90% vasodilation, as determined in the experiment described above. […]

[5] = Scavenging of the hydrated electron by pulse radiolysis; type: physicochemical; settings: no heparin added, λ=720 nm
Method: The experiment consisted in studying the effect of the presence of heparin on the observed rate of scavenging the hydrated electron by the MNIC^+ cation. The studies were carried out by pulse radiolysis, using an Elektronika ELU-6E linear electron accelerator (at the Institute of Applied Radiation Chemistry, Technical University of Lodz, Poland) having an electron beam energy of 6-8 MeV, as an ionising-radiation source. A solution of water-soluble heparin at a concentration of 10 μM was used in the experiment. […] Based on the recorded kinetic traces of decay of the hydrated electron in the presence of the MNIC^+Cl^− solutions at various concentrations, the values of the pseudo-first order rate constants were determined. The value of the second-order rate constant for the investigated reaction was determined from the slope of the linear dependence of the above-determined rate constants versus concentration. […] Then, based on the determined second-order reaction rate constant and the observed rate constant for decay of the hydrated electron in the presence of heparin and MNIC^+, the degree of binding of the tested compound to heparin was determined using the following relationship: […]

[6] = test system: isolated rat aorta; assay: Vasodilating effect on phenylephrine contracted isolated rat aortal rings; settings: isolated rat aorta with preserved endothelial function; concentrations range from tens to hundreds μmol/l
Method: as §1

[7] = test system: ATP-dependent potassium channels; assay: Effect of potassium channel inhibitor GLB on vasodilatating activity in isolated rat aortal rings
Method: as §1, §2

Compound | degree of binding to heparin [1] | degree of binding to heparin [2] | ability to release NO [3] | effect of further addition of ODQ after GLB pre-incubation on vasodilatating activity ([4]; ODQ 10 μM added after GLB 10 μM) | effect of pre-incubation with ODQ on vasodilatating activity ([4]; ODQ 10 μM, MNIC+Cl− at concentrations causing about 80-90% vasodilation) | second-order rate constant for the reaction of hydrated electron with the MNIC+ cation [5] | vasodilating activity (relaxation of phenylephrine contracted aortal rings) [6] | effect of addition of GLB after ODQ pre-incubation on reversal of the ODQ effect ([7]; GLB 10 μM added after ODQ 10 μM) | effect of pre-incubation with GLB on vasodilatating activity ([7]; GLB 10 μM, MNIC+Cl− at concentrations causing about 80-90% vasodilation)
C[n+]1cccc(C(N)=O)c1 [1-methylnicotinamide, reference compound] | 50% | 39% | – | – | – | – | – | – | –
C[n+]1cccc(C(=O)NCCO[N+](=O)[O-])c1.[Cl-] [MNIC^+Cl^−, 1-Methyl-N′-(2-nitroxyethyl)nicotinamide chloride] | 30% | 47% | releases NO | inhibition of vasodilatating activity | inhibited vasodilatating activity | 4.17e+10 to 1e+11 M⁻¹ s⁻¹ | concentration-dependent vasodilating activity | no further influence | had no influence
